{
  "source": "paper PMC6391970",
  "about": "“Design, Synthesis and Characterization of Covalent KDM5 Inhibitors” (Angewandte Chemie (International Ed. in English), 2018)",
  "key": {"KDM6B": {"target": "KDM6B (Homo sapiens, UniProt O15054)", "sequence (O15054 whole entry)": "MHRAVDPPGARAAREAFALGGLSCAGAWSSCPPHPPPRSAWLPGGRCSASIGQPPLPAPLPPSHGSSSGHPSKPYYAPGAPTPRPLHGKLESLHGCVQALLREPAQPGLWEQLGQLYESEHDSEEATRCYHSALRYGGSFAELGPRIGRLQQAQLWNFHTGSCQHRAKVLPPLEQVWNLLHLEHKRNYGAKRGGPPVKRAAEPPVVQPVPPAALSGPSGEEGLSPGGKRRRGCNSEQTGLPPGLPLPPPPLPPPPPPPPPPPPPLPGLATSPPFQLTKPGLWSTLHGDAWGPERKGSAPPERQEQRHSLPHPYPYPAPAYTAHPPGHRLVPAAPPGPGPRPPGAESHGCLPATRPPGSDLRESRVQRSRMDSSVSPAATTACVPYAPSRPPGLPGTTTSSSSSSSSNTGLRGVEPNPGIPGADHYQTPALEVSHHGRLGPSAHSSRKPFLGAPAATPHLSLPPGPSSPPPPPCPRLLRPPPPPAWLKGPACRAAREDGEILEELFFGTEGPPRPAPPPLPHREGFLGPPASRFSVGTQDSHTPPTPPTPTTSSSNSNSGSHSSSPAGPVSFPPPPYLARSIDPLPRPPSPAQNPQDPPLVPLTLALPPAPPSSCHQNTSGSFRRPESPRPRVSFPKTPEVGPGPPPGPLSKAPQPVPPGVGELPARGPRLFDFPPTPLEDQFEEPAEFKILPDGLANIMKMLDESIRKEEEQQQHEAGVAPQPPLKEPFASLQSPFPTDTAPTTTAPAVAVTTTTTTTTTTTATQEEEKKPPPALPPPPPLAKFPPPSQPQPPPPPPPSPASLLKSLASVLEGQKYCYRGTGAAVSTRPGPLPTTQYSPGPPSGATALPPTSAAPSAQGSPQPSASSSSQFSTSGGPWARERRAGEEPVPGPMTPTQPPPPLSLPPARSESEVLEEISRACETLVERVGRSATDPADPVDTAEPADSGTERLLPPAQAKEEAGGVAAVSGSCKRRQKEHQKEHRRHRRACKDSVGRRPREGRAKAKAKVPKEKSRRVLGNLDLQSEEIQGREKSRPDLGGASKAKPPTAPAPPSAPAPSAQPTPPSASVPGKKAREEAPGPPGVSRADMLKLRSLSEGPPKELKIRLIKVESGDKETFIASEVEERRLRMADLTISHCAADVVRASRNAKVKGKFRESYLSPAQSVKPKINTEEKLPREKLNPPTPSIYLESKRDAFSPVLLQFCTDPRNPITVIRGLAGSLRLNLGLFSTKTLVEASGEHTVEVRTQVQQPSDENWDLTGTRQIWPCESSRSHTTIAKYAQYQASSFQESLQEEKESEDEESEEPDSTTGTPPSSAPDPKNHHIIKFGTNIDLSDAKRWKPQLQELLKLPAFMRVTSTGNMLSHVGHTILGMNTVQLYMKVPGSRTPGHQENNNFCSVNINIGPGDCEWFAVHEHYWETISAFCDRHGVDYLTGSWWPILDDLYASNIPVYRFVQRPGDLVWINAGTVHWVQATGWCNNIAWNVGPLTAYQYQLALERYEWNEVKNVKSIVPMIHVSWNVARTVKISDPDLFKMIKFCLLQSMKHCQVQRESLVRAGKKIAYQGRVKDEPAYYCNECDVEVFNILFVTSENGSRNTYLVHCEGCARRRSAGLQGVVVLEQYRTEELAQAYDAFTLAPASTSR", "test": "KDM AlphaScreen selectivity panel, KDM6B", "format": "biochemical", "conditions": "for IC50: AlphaScreen after 120 min pre-incubation, read-out: KDM IC50 6B; for SI over KDM5B, 6B: KDM6B IC50/KDM5B IC50", "method": "(§1) A panel of JmjC KDMs was tested by AlphaScreen to determine the selectivity of the compounds (Table S2). […]\n(§2) KDM alpha screen selectivity\n(§3) Inhibition of histone demethylases was assessed using the histone demethylase AlphaScreen assay (Amplified Luminescence Proximity Homogenous Assay) as previously reported.[4] The basis of this assay for lysine demethylases have been widely described.[5] In brief, the assay was performed in 384-well plate format using white proxiplates (PerkinElmer), and transfer of titrations of compounds (100 nl) was performed using an ECHO 550 acoustic dispenser […]\n(§4) Tween- 20) containing the appropriate demethylase enzyme (see Supplementary table 1 for final concentrations) was transferred to each well of a 384-well proxiplate with a Multidrop™ Combi Reagent Dispenser, and the enzymes allowed to pre-incubate for 120 minutes with compound (final concentration of DMSO was 1%). After that time, the enzyme reaction was initiated by addition of 5 µl of a substrate mix consisting of Ketoglutarate (2-OG), Ferrous Ammonium Sulphate (FAS), L-Ascorbic Acid (LAA) and biotinylated peptide substrate (see Supporting table X for final assay concentrations) and the reaction incubated for the indicated time at room temperature. Reaction was stopped by the addition of 5 μl of assay buffer containing EDTA (7.5 mM) and NaCl (400 mM). Streptavidin Donor beads (0.08 mg/ml) and Protein-A conjugated acceptor beads (0.08 mg/ml) (AlphaScreen General IgG detection kit was from Perkin Elmer) were pre-incubated for 1 hour with an antibody to the product methyl mark (Supplementary Table 1) and the presence of biotin-H3-product was detected by addition of 5 µl of the pre-incubated AlphaScreen beads (final concentrations of 0.02 mg/ml with respect to acceptor and donor beads). Detection was allowed to proceed for 2 hour at room temperature and the assay plates read in a BMG Labtech Pherastar FS plate reader (excitation, 680 nm; emission, 570 […]"}, "KDM3A": {"target": "T1, KDM3A (Homo sapiens, UniProt Q9Y4C1)", "T1 sequence (Q9Y4C1 1-1321)": "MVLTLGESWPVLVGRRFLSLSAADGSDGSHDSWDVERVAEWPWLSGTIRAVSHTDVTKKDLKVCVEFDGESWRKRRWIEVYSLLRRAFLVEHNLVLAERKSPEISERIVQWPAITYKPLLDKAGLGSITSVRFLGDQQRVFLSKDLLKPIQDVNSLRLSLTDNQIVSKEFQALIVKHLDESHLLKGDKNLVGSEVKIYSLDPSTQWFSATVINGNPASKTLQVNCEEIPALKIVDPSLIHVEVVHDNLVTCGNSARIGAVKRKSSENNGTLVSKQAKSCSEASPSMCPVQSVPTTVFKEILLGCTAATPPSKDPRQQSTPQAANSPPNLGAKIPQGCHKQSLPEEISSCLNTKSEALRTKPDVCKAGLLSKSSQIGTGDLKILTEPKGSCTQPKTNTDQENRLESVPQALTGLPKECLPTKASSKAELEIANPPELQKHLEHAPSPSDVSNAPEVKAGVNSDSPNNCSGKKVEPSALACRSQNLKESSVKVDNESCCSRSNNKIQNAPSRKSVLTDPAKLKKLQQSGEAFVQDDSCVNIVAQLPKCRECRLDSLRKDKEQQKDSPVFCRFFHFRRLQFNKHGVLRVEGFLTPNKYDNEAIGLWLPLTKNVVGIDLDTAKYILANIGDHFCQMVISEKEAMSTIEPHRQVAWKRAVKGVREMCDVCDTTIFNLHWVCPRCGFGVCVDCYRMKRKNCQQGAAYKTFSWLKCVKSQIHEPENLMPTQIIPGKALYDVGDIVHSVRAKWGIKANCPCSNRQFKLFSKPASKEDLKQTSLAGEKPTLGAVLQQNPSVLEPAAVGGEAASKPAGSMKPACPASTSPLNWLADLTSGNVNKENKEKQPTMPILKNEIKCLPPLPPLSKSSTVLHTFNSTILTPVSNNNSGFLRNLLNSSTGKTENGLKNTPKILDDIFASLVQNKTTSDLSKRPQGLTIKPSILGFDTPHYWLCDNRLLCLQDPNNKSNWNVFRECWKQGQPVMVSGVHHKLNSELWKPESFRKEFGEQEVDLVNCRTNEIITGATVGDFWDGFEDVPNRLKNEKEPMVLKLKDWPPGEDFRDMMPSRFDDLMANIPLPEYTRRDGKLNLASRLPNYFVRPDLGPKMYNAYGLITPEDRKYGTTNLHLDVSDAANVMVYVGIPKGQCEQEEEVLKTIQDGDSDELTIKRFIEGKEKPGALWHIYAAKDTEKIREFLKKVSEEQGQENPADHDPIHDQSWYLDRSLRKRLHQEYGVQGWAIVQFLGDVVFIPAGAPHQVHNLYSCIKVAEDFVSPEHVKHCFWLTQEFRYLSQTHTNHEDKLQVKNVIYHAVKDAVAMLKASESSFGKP", "test": "KDM AlphaScreen selectivity panel, KDM3A", "format": "biochemical", "conditions": "for IC50: AlphaScreen after 120 min pre-incubation, read-out: KDM IC50 3A; for SI over KDM5B, 3A: KDM3A IC50/KDM5B IC50", "method": "as §1, §2, §3, §4\nIC50(t) = Ki (1 + K ) . ( η . k .t − 1) (1) […]\nTable S4. AlphaScreen assay conditions for the KDM selectivity panel"}, "PCAF": {"target": "T2, PCAF (Homo sapiens, UniProt Q92831)", "T2 construct": "either with the PCAF -HAT domain or with NUDT7", "T2 sequence (Q92831 503-651 limits assumed, species assumed)": "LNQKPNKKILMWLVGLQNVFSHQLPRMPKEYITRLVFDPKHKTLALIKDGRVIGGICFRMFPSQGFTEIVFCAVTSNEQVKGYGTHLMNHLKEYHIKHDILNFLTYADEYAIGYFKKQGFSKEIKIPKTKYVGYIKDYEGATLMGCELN", "test": "Covalent binding by MS, PCAF", "conditions": "PCAF-HAT domain, 37 °C, 1h", "method": "(§5) Figure S3. Mass Spectra of compounds incubated with enzymes with known reported covalent inhibitors.\n(§6) Compounds 4 (red), 7 (orange) and 9 (light blue) incubated at 37 °C with PCAF (A) and NUDT7 (B). No covalent\n(§7) after incubation at 37 °C for 1h. Expected modification peaks for each compounds are indicated with purple arrows. […]"}, "NUDT7": {"target": "NUDT7 (Homo sapiens, UniProt P0C024)", "sequence (P0C024 whole entry)": "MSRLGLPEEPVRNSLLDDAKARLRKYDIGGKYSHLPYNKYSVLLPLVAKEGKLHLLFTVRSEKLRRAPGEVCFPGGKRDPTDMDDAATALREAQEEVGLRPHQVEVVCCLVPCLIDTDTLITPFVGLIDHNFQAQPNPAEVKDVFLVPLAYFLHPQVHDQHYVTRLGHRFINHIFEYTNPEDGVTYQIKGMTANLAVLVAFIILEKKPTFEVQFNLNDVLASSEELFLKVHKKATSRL", "test": "Covalent binding by MS, NUDT7", "conditions": "37 °C, 1h", "method": "as §5, §6, §7"}},
  "note": "Entries after “also recorded” stand apart in the source; their conditions may differ.",
  "data": [
    {"smiles": "C=CC(=O)N1CCC(n2cc(-c3[nH]c4c(C#N)cnn4c(=O)c3C(C)C)cn2)CC1", "note": "[Compound 10]", "values": [
      {"measurement": "IC50", "setting": "KDM6B", "result": "> 100", "unit": "µM"},
      {"measurement": "IC50", "setting": "KDM3A", "result": "9.4 ± 0.4", "unit": "µM"},
      {"measurement": "SI over KDM5B, 3A", "setting": "KDM3A", "result": 547}
    ]},
    {"smiles": "C=CC(=O)Nc1cccc(CN(C)CCc2cnn(-c3nccc4c(=O)[nH]cnc34)c2)c1", "note": "[Compound 4]", "values": [
      {"measurement": "covalent labelling of PCAF by MS", "setting": "PCAF", "result": "no labelling was observed; also recorded: No covalent modifications were observed"},
      {"measurement": "IC50", "setting": "KDM6B", "result": "> 33", "unit": "µM"},
      {"measurement": "SI over KDM5B, 6B", "setting": "KDM6B", "result": "> 1650"},
      {"measurement": "covalent labelling of NUDT7 by MS", "setting": "NUDT7", "result": "no labelling was observed; also recorded: No covalent modifications were observed"},
      {"measurement": "IC50", "setting": "KDM3A", "result": "8.4 ± 4.1", "unit": "µM"}
    ]},
    {"smiles": "CC(C)c1c(-c2cnn(CCNC(=O)CCl)c2)[nH]c2c(C#N)cnn2c1=O", "note": "[Compound 7]", "values": [
      {"measurement": "covalent labelling of PCAF by MS", "setting": "PCAF", "result": "no labelling was observed; also recorded: No covalent modifications were observed"},
      {"measurement": "IC50", "setting": "KDM6B", "result": "> 100", "unit": "µM"},
      {"measurement": "SI over KDM5B, 6B", "setting": "KDM6B", "result": "> 14285"},
      {"measurement": "covalent labelling of NUDT7 by MS", "setting": "NUDT7", "result": "no labelling was observed; also recorded: No covalent modifications were observed"},
      {"measurement": "IC50", "setting": "KDM3A", "result": "5.7 ± 0.4", "unit": "µM"},
      {"measurement": "SI over KDM5B, 3A", "setting": "KDM3A", "result": 806}
    ]},
    {"smiles": "C=CC(=O)NCCOc1ccc(-c2[nH]c3c(C#N)cnn3c(=O)c2C(C)C)cc1", "note": "[Compound 9]", "values": [
      {"measurement": "covalent labelling of PCAF by MS", "setting": "PCAF", "result": "no labelling was observed; also recorded: No covalent modifications were observed"},
      {"measurement": "IC50", "setting": "KDM6B", "result": "> 100", "unit": "µM"},
      {"measurement": "SI over KDM5B, 6B", "setting": "KDM6B", "result": "> 1539"},
      {"measurement": "covalent labelling of NUDT7 by MS", "setting": "NUDT7", "result": "no labelling was observed; also recorded: No covalent modifications were observed"},
      {"measurement": "IC50", "setting": "KDM3A", "result": "17 ± 0.4", "unit": "µM"},
      {"measurement": "SI over KDM5B, 3A", "setting": "KDM3A", "result": 264}
    ]},
    {"smiles": "CN(C)C/C=C/C(=O)Nc1cccc(CN(C)CCc2cnn(-c3nccc4c(=O)[nH]cnc34)c2)c1", "note": "[Compound 6]", "values": [
      {"measurement": "IC50", "setting": "KDM6B", "result": "> 100", "unit": "µM"}
    ]},
    {"smiles": "CN(CCc1cnn(-c2nccc3c(=O)[nH]cnc23)c1)Cc1cccc(NC(=O)CCl)c1", "note": "[Compound 5]", "values": [
      {"measurement": "IC50", "setting": "KDM6B", "result": "0.67 ± 0.01", "unit": "µM"},
      {"measurement": "SI over KDM5B, 6B", "setting": "KDM6B", "result": 67},
      {"measurement": "IC50", "setting": "KDM3A", "result": "2.6 ± 0.1", "unit": "µM"},
      {"measurement": "SI over KDM5B, 3A", "setting": "KDM3A", "result": 260}
    ]},
    {"smiles": "CC(C)c1c(-c2cnn(C3CCN(C(=O)CCl)CC3)c2)[nH]c2c(C#N)cnn2c1=O", "note": "[Compound 11]", "values": [
      {"measurement": "IC50", "setting": "KDM6B", "result": "> 100", "unit": "µM"},
      {"measurement": "IC50", "setting": "KDM3A", "result": "9.1 ± 0.8", "unit": "µM"},
      {"measurement": "SI over KDM5B, 3A", "setting": "KDM3A", "result": 1007}
    ]}
  ]
}
